From patent US4803266A, “3-Oxoalkylidene-2-azetidinone derivatives” (Taisho Pharmaceutical Co., Ltd., priority 1986, dated 1989) come the findings set out here.

Experiment [1] has as its system blood platelet aggregation. Kind of experiment: Blood platelet aggregation inhibition in vitro in rabbit PRP, collagen induced. The experiment is classed as cell-based, male, New Zealand strain house rabbit. The note with it: Oryctolagus cuniculus, collagen final concentration 5 μg/ml, 37° C., 3 minutes preincubation, 50% inhibition of maximum aggregation rate. As to the method:
(§1) Citrated blood (one volume of 3.2% sodium citrate; 9 volumes of blood) was collected from carotid artery of male, New Zealand strain house rabbit, centrifuged at 150 g for 15 minutes to give platelet rich plasma (PRP) as a supernatant, and the remaining blood was centrifuged at 1500 g for 10 minutes to give platelet poor plasma (PPP) as a supernatant. The platelet count of PRP was adjusted to 50-60×10^4 /μl by dilution of PPP. Blood platelet aggregation was carried out according to the method of Born [Born, G. V. R., Nature, 194, 927 (1962)]. Namely, 25 μl of the test drug, (all the test drugs were dissolved in dimethyl sulfoxide and adjusted to the desired concentration with physiological saline solution), was added to 250 μl of PRP, and the mixture was incubated at 37° C. for 3 minutes. 25 μl of the aggregation inducing substance [adenosine diphosphate (ADP); final concentration 5 μM or collagen: final concentration 5 μg/ml] was added, the mixture was measured for 5 minutes by blood platelet aggregation ability measurement apparatus (Aggricoda TM-PA-3210, Kyoto Dai-ichi Kagaku) to obtain the maximum aggregation rate, and there was calculated the concentration of the test drug (ICP50) which brings about 50% inhibition to the maximum aggregation rate obtained by adding the aggregation inducing substance to PRP containing the solvent only.
(§2) The compound numbers in Table 1 correspond to those in the Examples described below.

Experiment [2] concerns blood platelet aggregation. Nature of the experiment: Blood platelet aggregation inhibition in vitro in rabbit PRP, ADP induced. The note with it: Oryctolagus cuniculus, ADP final concentration 5 μM, 37° C., 3 minutes preincubation, 50% inhibition of maximum aggregation rate. The experiment is classed as cell-based, male, New Zealand strain house rabbit. As to the method: as §1, §2

With `Cc1ccccc1N1C(=O)/C(=C/C(=O)c2ccc([N+](=O)[O-])cc2)C1c1ccccc1` (centres unmarked) [Compound 18], the IC50 is 3.2 µM in experiment [1] and 6.6 µM in experiment [2].
For `O=C(/C=C1/C(=O)N(c2ccc(Br)cc2)C1c1ccccc1)c1ccc(F)cc1` (centres unmarked) [Compound 40], in that order: 13.2 µM and 11.3 µM.
For `O=C(/C=C1/C(=O)N(Cc2ccc(F)cc2)C1c1ccccc1)c1ccc([N+](=O)[O-])cc1` (centres unmarked) [Compound 93], in that order: 8.7 µM and 18.3 µM.
`Cc1ccccc1N1C(=O)/C(=C/C(=O)c2ccc([N+](=O)[O-])cc2)C1c1ccc(F)cc1` (centres unmarked) [Compound 79]: the IC50 in experiment [1] came out at 5.1 µM; in experiment [2] it was 4.3 µM.
For `COc1ccc(C(=O)/C=C2/C(=O)N(c3ccccc3C)C2c2ccccc2)cc1` (centres unmarked) [Compound 16], in that order: 4.1 µM and 12.5 µM.
Regarding `Cc1ccc(CN2C(=O)/C(=C/C(=O)c3ccc([N+](=O)[O-])cc3)C2c2ccccc2)cc1` (centres unmarked) [Compound 91], the values for the IC50 in experiment [1] and in experiment [2] were 6.7 µM and 9.7 µM, respectively.
For `Cc1ccc(Cl)cc1N1C(=O)/C(=C/C(=O)c2ccccc2)C1c1ccccc1` (centres unmarked) [Compound 26], in that order: 9.5 µM and 16.5 µM.

Usually IC50 stands for the concentration that inhibits the measured activity by half.
